Where two headings read alike, the source gives them in different places. Square brackets hold non-standard residues; d marks the D form. Peptide text beside a SMILES is read from it. Hyp = O=C(O)[C@@H]1C[C@@H](O)CN1
Columns and labels:
[1] = target: T1, DPPIV enzyme; human recombinant (Homo sapiens, UniProt P27487); experiment: DPPIV inhibitory activity (DPPIV Drug Discovery Kit-AK-499, H-Gly-Pro-AMC substrate); assay type: biochemical; conditions: for IC50 (concentration at which 50% of DPPIV activity was inhibited): peptides, human recombinant DPPIV; for DPPIV inhibitory activity (in words): discussion of results
T1 construct: purchased BIOMOL E434-9090 (kit AK-499)
T1 sequence (P27487 whole entry): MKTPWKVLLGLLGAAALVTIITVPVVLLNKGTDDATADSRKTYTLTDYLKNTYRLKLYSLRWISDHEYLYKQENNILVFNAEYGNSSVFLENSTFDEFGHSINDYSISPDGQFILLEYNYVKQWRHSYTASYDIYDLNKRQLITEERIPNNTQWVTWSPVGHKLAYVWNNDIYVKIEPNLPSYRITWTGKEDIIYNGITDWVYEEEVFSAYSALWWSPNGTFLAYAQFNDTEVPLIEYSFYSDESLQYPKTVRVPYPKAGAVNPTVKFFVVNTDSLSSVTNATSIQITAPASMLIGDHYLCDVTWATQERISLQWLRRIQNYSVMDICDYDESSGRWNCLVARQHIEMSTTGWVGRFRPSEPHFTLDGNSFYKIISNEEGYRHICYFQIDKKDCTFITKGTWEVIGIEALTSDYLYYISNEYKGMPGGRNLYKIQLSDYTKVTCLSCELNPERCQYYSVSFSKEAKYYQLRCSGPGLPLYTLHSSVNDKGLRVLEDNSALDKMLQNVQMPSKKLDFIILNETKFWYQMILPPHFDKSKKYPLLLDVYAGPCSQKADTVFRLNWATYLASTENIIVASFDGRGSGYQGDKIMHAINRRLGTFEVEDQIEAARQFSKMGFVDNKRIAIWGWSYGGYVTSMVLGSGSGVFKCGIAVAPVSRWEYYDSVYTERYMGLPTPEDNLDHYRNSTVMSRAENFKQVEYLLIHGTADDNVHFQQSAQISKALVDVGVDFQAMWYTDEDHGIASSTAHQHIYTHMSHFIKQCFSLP
Protocol: DPPIV inhibitory activity was determined by using a DPPIV inhibitory activity measuring kit “DPPIV Drug Discovery Kit-AK-499” (manufactured by BIOMOL). […] Inhibitory activity was evaluated by the concentration at which 50% of DPPIV activity was inhibited.

[2] = Intestinal tract absorptivity (intragastric administration, portal vein perfusate, LC/MS/MS); assay type: in vivo, Wistar rats; conditions: rat, po
Protocol: Male Wistar rats (170 g) were fasted overnight before subjected to the experiment. As a test sample, 215 nmol/10 mL of each of the peptides was used, and intragastrically administered. As a test method, heart and portal vein of each rat were attached with a cannula to make one-directional perfusion. […] To a perfusion sample solution (5.0 mL) collected from the portal vein was added 0.5 mL of 30% sulfosalicylic acid and stirred vigorously, and left overnight in a refrigerator. This sample was centrifuged at 3000 rpm for 10 minutes, to remove protein. For the supernatant of centrifugation, an amount of hydroxyproline in 0.5 mL was colorimetrically quantified, and an amount of free-type Hyp was obtained. […] After concentrating and drying the resultant in an evaporator, and removing the hydrochloric acid, the solid was dissolved in 5 mL of distilled water, and several drops of a saturated lithium hydroxide solution was added thereto to adjust pH at 5 to 7, and the volume was fixed at 10 mL. […] The value obtained by subtracting the amount of free-type Hyp before hydrolysis from the total Hyp amount after hydrolysis is an amount of peptide-form Hyp. From this amount of peptide-form Hyp, a quantitative value of absorption of each peptide into rat portal vein perfusate in the test sample was first determined. The colorimetric quantification of the amount of hydroxyproline was conducted by a […] and Shill method, and was concretely conducted in the following manner. That is, 2 mL of 2-propanol was added to 2 mL of a sample solution and stirred thoroughly. Then, 0.5 mL of a chloramine T liquid being an oxidizing agent was added to the mixture, and left still for accurately 4 minutes, and then cooled on ice. Then, 5 mL of a p-dimethylaminobenzaldehyde solution was added to the mixture and stirred thoroughly, and then heated in a boiling water bath for accurately 2 minutes. Then, the reaction was immediately cooled on ice, and left still for 1 hour, and then colorimetrically quantified at a wavelength of 575 nm. […] Further, the p-dimethylaminobenzaldehyde solution (Erich solution) was prepared by dissolving 20 g of p-dimethylaminobenzaldehyde powder in 22 mL of concentrated hydrochloric acid under heating in boiling water, and immediately cooling the same in ice water, and adding 122 mL of 2-propanol and dissolving it under stirring. Next, peptides collected in the rat portal vein perfusate, namely the aforementioned intestinally absorbed peptides were identified and quantified by the following HPLC analysis and mass spectrometry (LC/MS/MS). Analysis of the peptide in the perfusate was conducted by reverse-phase HPLC analysis. As a HPLC device, an LCSS-905 system manufactured by JASCO Corporation, consisting of a liquid feeding pump, a degasser, an automatic sampler, a column open, a UV spectrophotometer, a printer, and a system controller was used. As a reverse-phase column, Nova Pak C18 (3.9×150 mm) was used. […] As a HPLC device, U980HPLC (manufactured by JASCO Corporation) attached with an ODS(C18) column (Mightysil RP-18, 2×250 mm, manufactured by Kanto Chemical Co., Ltd.) was used. As a mobile phase solvent, a 0.2% formic acid-containing acetonitrile-water system was used, and the concentration of acetonitrile was increased from 0% to 40% over 40 minutes by a linear gradient, and it was washed with 100% acetonitrile for 10 minutes. […] MS analysis was conducted by a MS/MS system using a Quattro LC mass spectrophotometer (Micromass, Manchester, UK) according to a four-channel Multiple Reaction Monitoring method. To be more specific, the elute from HPLC was monitored by m/z being [M+H]^+ and by m/z of its fragment ion species. At this time, [M+H]^+ m/z was monitored using 302.2>189.4 for LOG; 286.1>189.3 for POG; 187.1>70.3 for PA; 261.1>243.4 for EO, 245.1>132.3 for LO; 245.2>132.1 for IO; 318.1>225.4 for EOG; 276.1>189.4 for SOG; 219.1>132.2 for SO; and 260.1>189.4 for AOG.

[3] = system: Human-derived intestinal tract L cells (NCI-H716 cell); assay type: cell-based; conditions: for GLP-1 secretion accelerating activity (in words): discussion of results; for GLP-1 secretion accelerating percentage: peptides, 5 mM sample, 1 hour, NCI-H716 cells, Blank = 100%, n = 4
Protocol: Human-derived intestinal tract L cells (NCI-H716 cell: manufactured by ATCC) were inoculated at 5×10^5 cells/mL×200 μL (1×10^5 cells/well) in a RPIM medium containing 10% FBS (manufactured by ATCC) on a Pre-coated poly-L-lysin plate (96 wells plate) and cultured for 2 days. After confirming that the cells were adhered to the plate, the medium was replaced by a test medium (146 mM NaCl, 5 mM KCl, 1.5 mM CaCl2, 1 mM MgSO4, 20 mM HEPES, 5.6 mM glucose, 2 mg/mL BSA) and a sample was added at a final concentration of 5 mM. A culture supernatant after 1 hour was 30-fold diluted with PBS, and tested with GLP-1 ELISA kit (manufactured by Levis) according to the protocol.
Based on GLP-1 secretion in the case not added with the sample (Blank) as 100%, a GLP-1 secretion accelerating percentage in the fraction added with 5 mM sample was calculated.

[4] = male, Wistar, in vivo, 215 nmol/10 mL
[5] = male Wistar rats, 215 nmol/10 mL intragastrically, portal vein perfusate, read-out: Amount of peptide identified after absorption

Compound	IC50 (concentration at which 50% of DPPIV activity was inhibited) [1]	level at time molar [2, 4]	DPPIV inhibitory activity (in words) [1]	GLP-1 secretion accelerating activity (in words) [3]	GLP-1 secretion accelerating percentage [3]	level at time molar [2, 5]
C[C@H](NC(=O)[C@@H]1CCCN1)C(=O)NCC(=O)O [PAG, reference compound] (H-Pro-Ala-Gly-OH; N-terminus and C-terminus assumed)	>10000 µM	105 ± 1.3 µM	–	–	–	–
Pro-Gly [PG]	–	–	have DPPIV inhibitory activity	have GLP-1 secretion accelerating activity	168 ± 15%	–
Hyp-Gly [OG]	–	–	have DPPIV inhibitory activity	have GLP-1 secretion accelerating activity	152 ± 22%	–
C[C@H](N)C(=O)N1C[C@H](O)C[C@H]1C(=O)O [AO, Ala-Hyp] (H-Ala-[Hyp]-OH; N-terminus and C-terminus assumed)	>10000 µM	71 ± 0.9 µM	–	–	262 ± 71%	–
NCC(=O)N1CCC[C@H]1C(=O)N1C[C@H](O)C[C@H]1C(=O)O [GPO, Gly-Pro-Hyp] (H-Gly-Pro-[Hyp]-OH)	>10000 µM	–	–	–	278 ± 60%	2.2 µM
C[C@H](NC(=O)[C@@H]1CCCN1)C(=O)O [PA, Pro-Ala] (H-Pro-Ala-OH; N-terminus and C-terminus assumed)	1000 µM	152.6 ± 1.1 µM	high DPPIV inhibitory activity	have GLP-1 secretion accelerating activity	133 ± 85%	–
O=C(O)CNC(=O)[C@@H]1C[C@@H](O)CN1C(=O)[C@@H]1CCCN1 [POG, Pro-Hyp-Gly] (H-Pro-[Hyp]-Gly-OH; N-terminus and C-terminus assumed)	600 µM	–	high DPPIV inhibitory activity	–	–	129 ± 1 µM
C[C@H](N)C(=O)N1C[C@H](O)C[C@H]1C(=O)NCC(=O)O [AOG, Ala-Hyp-Gly] (H-Ala-[Hyp]-Gly-OH; N-terminus and C-terminus assumed)	6000 µM	–	high DPPIV inhibitory activity	have GLP-1 secretion accelerating activity	120 ± 5%	66.7 ± 1.3 µM
N[C@@H](CO)C(=O)N1C[C@H](O)C[C@H]1C(=O)NCC(=O)O [SOG, Ser-Hyp-Gly] (H-Ser-[Hyp]-Gly-OH; N-terminus and C-terminus assumed)	3000 µM	103.2 ± 1 µM	high DPPIV inhibitory activity	–	–	–
CC(C)C[C@H](N)C(=O)N1C[C@H](O)C[C@H]1C(=O)O [LO, Leu-Hyp] (H-Leu-[Hyp]-OH; N-terminus and C-terminus assumed)	1700 µM	167.7 ± 0.9 µM	high DPPIV inhibitory activity	–	–	–
N[C@@H](CO)C(=O)N1C[C@H](O)C[C@H]1C(=O)O [SO, Ser-Hyp] (H-Ser-[Hyp]-OH; N-terminus and C-terminus assumed)	3600 µM	116.1 ± 0.9 µM	high DPPIV inhibitory activity	have GLP-1 secretion accelerating activity	161 ± 37%	–
Pro-Pro [PP]	–	–	have DPPIV inhibitory activity	have GLP-1 secretion accelerating activity	167 ± 53%	–
CC(C)C[C@H](N)C(=O)N1C[C@H](O)C[C@H]1C(=O)NCC(=O)O [LOG, Leu-Hyp-Gly] (H-Leu-[Hyp]-Gly-OH; N-terminus and C-terminus assumed)	280 µM	–	high DPPIV inhibitory activity	have GLP-1 secretion accelerating activity	326 ± 17%	116.1 ± 1 µM
CC[C@H](C)[C@H](N)C(=O)N1C[C@H](O)C[C@H]1C(=O)O [IO, Ile-Hyp] (H-Ile-[Hyp]-OH; N-terminus and C-terminus assumed)	2900 µM	163 ± 1.9 µM	high DPPIV inhibitory activity	–	–	–
N[C@@H](CCC(=O)O)C(=O)N1C[C@H](O)C[C@H]1C(=O)O [EO, Glu-Hyp] (H-Glu-[Hyp]-OH; N-terminus and C-terminus assumed)	1500 µM	156 ± 1.3 µM	high DPPIV inhibitory activity	have GLP-1 secretion accelerating activity	148 ± 66%	–
Pro-Hyp [PO]	–	–	have DPPIV inhibitory activity	have GLP-1 secretion accelerating activity	154 ± 44%	–
N[C@@H](CCC(=O)O)C(=O)N1C[C@H](O)C[C@H]1C(=O)NCC(=O)O [EOG, Glu-Hyp-Gly] (H-Glu-[Hyp]-Gly-OH; N-terminus and C-terminus assumed)	2900 µM	110 ± 0.9 µM	high DPPIV inhibitory activity	have GLP-1 secretion accelerating activity	307 ± 84%	–
